Measured values: patent publication US12338220B2, “Antiviral pyrazolopiridinone compounds” (Novartis AG, priority 2019, dated 2025)
pEC50, pIC50: −log10 of the molar value. Read-outs that look alike come from different tables or passages of the source.

Tests used:
[1] = target: CMV-polymerase (Human cytomegalovirus (strain AD169) (HHV-5) (Human herpesvirus 5), UniProt P08546); test: biochemical
[2] = test system: CMV; test: microbe, parasite or virus in culture; assay type: cell-based; conditions: Human betaherpesvirus 5, 72 h, read-out: CMV-Luc Cellular EC50, NN-NHDF cells, MOI 1, 72 hrs
[3] = read-out: CMV-polymerase Biochemical IC50
[4] = CMV-polymerase Biochemical IC50

Row | Structure (SMILES) | pIC50 [1, 3] | pEC50 [2] | pIC50 [1, 4]
1 | Cn1nc(C(=O)NCc2ccc(C#N)cc2)c2c1C(=O)N(CC1(S(=O)(=O)C(C)(C)CN3CC4CC3CO4)CC1)CC2 (centres unmarked) [Example 64, 6-((1-((1-(2-Oxa-5-azabicyclo[2.2.1]heptan-5-yl)-2-methylpropan-2-yl)sulfonyl)cyclopropyl)methyl)-N-(4-cyanobenzyl)-1-methyl-7-oxo-4,5,6,7-tetrahydro-1H-pyrazolo[3,4-c]pyridine-3-carboxamide] | 8.40 | 6.97 | 
2 | Cn1nc(C(=O)NCc2ccc(C#N)cc2)c2c1C(=O)N(CC1(S(=O)(=O)C(C)(C)CN3CC(O)C3)CC1)CC2 [Example 65, N-(4-Cyanobenzyl)-6-((1-((1-(3-hydroxyazetidin-1-yl)-2-methylpropan-2-yl)sulfonyl)cyclopropyl)methyl)-1-methyl-7-oxo-4,5,6,7-tetrahydro-1H-pyrazolo[3,4-c]pyridine-3-carboxamide] | 8.70 | 7.30 | 
3 | COC1CN(CC(C)(C)S(=O)(=O)C2(CN3CCc4c(C(=O)NCc5ccc(C#N)cc5)nn(C)c4C3=O)CC2)C1 [Example 66, N-(4-Cyanobenzyl)-6-((1-((1-(3-methoxyazetidin-1-yl)-2-methylpropan-2-yl)sulfonyl)cyclopropyl)methyl)-1-methyl-7-oxo-4,5,6,7-tetrahydro-1H-pyrazolo[3,4-c]pyridine-3-carboxamide] | 8.70 | 7.06 | 
4 | Cn1nc(C(=O)NCc2ccc(C#N)cc2)c2c1C(=O)N(CC1(S(=O)(=O)C(C)(C)CN3CC4(COC4)C3)CC1)CC2 [Example 67, N-(4-Cyanobenzyl)-1-methyl-6-((1-((2-methyl-1-(2-oxa-6-azaspiro[3.3]heptan-6-yl)propan-2-yl)sulfonyl)cyclopropyl)methyl)-7-oxo-4,5,6,7-tetrahydro-1H-pyrazolo[3,4-c]pyridine-3-carboxamide] | 8.70 | 7.09 | 
5 | Cn1nc(C(=O)NCc2ccc(C#N)cc2)c2c1C(=O)N(CC1(S(=O)(=O)C(C)(C)CN3CCC(O)C3)CC1)CC2 (centres unmarked) [Example 68, N-(4-Cyanobenzyl)-6-((1-((1-(3-hydroxypyrrolidin-1-yl)-2-methylpropan-2-yl)sulfonyl)cyclopropyl)methyl)-1-methyl-7-oxo-4,5,6,7-tetrahydro-1H-pyrazolo[3,4-c]pyridine-3-carboxamide] | 9.00 | 6.94 | 
6 | Cn1nc(C(=O)NCc2ccc(C#N)cc2)c2c1C(=O)N(CC1(S(=O)(=O)C(C)(C)CNCCO)CC1)CC2 [Example 69, N-(4-Cyanobenzyl)-6-((1-((1-((2-hydroxyethyl)amino)-2-methylpropan-2-yl)sulfonyl)cyclopropyl)methyl)-1-methyl-7-ox0-4,5,6,7-tetrahydro-1H-pyrazolo[3,4-c]pyridine-3-carboxamide] | 9.00 | 7.24 | 
7 | Cn1nc(C(=O)NCc2ccc(C#N)cc2)c2c1C(=O)N(CC1(S(=O)(=O)C(C)(C)CN)CC1)CC2 [Example 70, 6-((1-((1-Amino-2-methylpropan-2-yl)sulfonyl)cyclopropyl)methyl)-N-(4-cyanobenzyl)-1-methyl-7-oxo-4,5,6,7-tetrahydro-1H-pyrazolo[3,4-c]pyridine-3-carboxamide] |  | 7.21 | 8.52
8 | COC(=O)NCC(C)(C)S(=O)(=O)C1(CN2CCc3c(C(=O)NCc4ccc(C#N)cc4)nn(C)c3C2=O)CC1 [Example 73, Methyl (2-((1-((3-((4-cyanobenzyl)carbamoyl)-1-methyl-7-oxo-1,4,5,7-tetrahydro-6H-pyrazolo[3,4-c]pyridin-6-yl)methyl)cyclopropyl)sulfonyl)-2-methylpropyl)carbamate] | 8.70 | 7.28 | 
9 | Cn1nc(C(=O)NCc2ccc(C#N)cc2)c2c1C(=O)N(CC1(S(=O)(=O)C(C)(C)CNC(=O)CN)CC1)CC2 [Example 74, 6-((1-((1-(2-Aminoacetamido)-2-methylpropan-2-yl)sulfonyl)cyclopropyl)methyl)-N-(4-cyanobenzyl)-1-methyl-7-oxo-4,5,6,7-tetrahydro-1H-pyrazolo[3,4-c]pyridine-3-carboxamide] | 8.52 | 6.83 | 
10 | C[C@@H](N)C(=O)NCC(C)(C)S(=O)(=O)C1(CN2CCc3c(C(=O)NCc4ccc(C#N)cc4)nn(C)c3C2=O)CC1 [Example 75, (R)-6-((1-((1-(2-Aminopropanamido)-2-methylpropan-2-yl)sulfonyl)cyclopropyl)methyl)-N-(4-cyanobenzyl)-1-methyl-7-oxo-4,5,6,7-tetrahydro-1H-pyrazolo[3,4-c]pyridine-3-carboxamide] | 8.15 | 7.33 | 
11 | C[C@H](N)C(=O)NCC(C)(C)S(=O)(=O)C1(CN2CCc3c(C(=O)NCc4ccc(C#N)cc4)nn(C)c3C2=O)CC1 [Example 76, (S)-6-((1-((1-(2-Aminopropanamido)-2-methylpropan-2-yl)sulfonyl)cyclopropyl)methyl)-N-(4-cyanobenzyl)-1-methyl-7-oxo-4,5,6,7-tetrahydro-1H-pyrazolo[3,4-c]pyridine-3-carboxamide] | 8.00 | 7.08 | 
12 | Cn1nc(C(=O)NCc2ccc(C#N)cc2)c2c1C(=O)N(CC1(S(=O)(=O)C(C)(C)CNC(=O)C(C)(C)N)CC1)CC2 [Example 77, 6-((1-((1-(2-Amino-2-methylpropanamido)-2-methylpropan-2-yl)sulfonyl)cyclopropyl)methyl)-N-(4-cyanobenzyl)-1-methyl-7-oxo-4,5,6,7-tetrahydro-1H-pyrazolo[3,4-c]pyridine-3-carboxamide] | 7.92 | 6.94 | 
13 | CN(C)CC(=O)NCC(C)(C)S(=O)(=O)C1(CN2CCc3c(C(=O)NCc4ccc(C#N)cc4)nn(C)c3C2=O)CC1 [Example 78, N-(4-Cyanobenzyl)-6-((1-((1-(2-(dimethylamino)acetamido)-2-methylpropan-2-yl)sulfonyl)cyclopropyl)methyl)-1-methyl-7-oxo-4,5,6,7-tetrahydro-1H-pyrazolo[3,4-c]pyridine-3-carboxamide] | 7.59 | 6.95 | 
14 | Cn1nc(C(=O)NCc2ccc(C#N)cc2)c2c1C(=O)N(CC1(S(=O)(=O)C(C)(C)COC(F)(F)CO)CC1)CC2 [Example 84, N-(4-cyanobenzyl)-6-((1-((1-(1,1-difluoro-2-hydroxyethoxy)-2-methylpropan-2-yl)sulfonyl)cyclopropyl)methyl)-1-methyl-7-oxo-4,5,6,7-tetrahydro-1H-pyrazolo[3,4-c]pyridine-3-carboxamide] |  | 7.29 | 8.40
15 | Cn1nc(C(=O)NCc2ccc(C#N)cc2)c2c1C(=O)N(CC1(S(=O)(=O)C(C)(C)COC(F)(F)CN)CC1)CC2 [Example 85, 6-((1-((1-(2-Amino-1,1-difluoroethoxy)-2-methylpropan-2-yl)sulfonyl)cyclopropyl)methyl)-N-(4-cyanobenzyl)-1-methyl-7-oxo-4,5,6,7-tetrahydro-1H-pyrazolo[3,4-c]pyridine-3-carboxamide] |  | 7.30 | 8.52
16 | Cn1nc(C(=O)NCc2ccc(C#N)cc2)c2c1C(=O)N(CC1(S(=O)(=O)C(C)(C)COCC(C)(C)O)CC1)CC2 [Example 86, N-(4-Cyanobenzyl)-6-((1-((1-(2-hydroxy-2-methylpropoxy)-2-methylpropan-2-yl)sulfonyl)cyclopropyl)methyl)-1-methyl-7-oxo-4,5,6,7-tetrahydro-1H-pyrazolo[3,4-c]pyridine-3-carboxamide] |  | 6.84 | 7.74
